The values below come from US9802997B2, “Peptides and combination of peptides for use in immunotherapy against various tumors” (immatics biotechnologies GmbH, priority 2015, dated 2017).

Experiment [1] has as its system CD8+ T cells of healthy HLA-A*02 donors. Nature of the experiment: In vitro immunogenicity: in vitro T-cell priming with aAPCs loaded with peptide/MHC complexes and anti-CD28 antibody, pMHC multimer readout. Format: cell-based, human. Conditions: HLA-A*02 restricted peptides; percentage of positive wells among evaluable. The source says: In order to obtain information regarding the immunogenicity of the TUMAPs of the present invention, the inventors performed investigations using an in vitro T-cell priming assay based on repeated stimulations of CD8+ T cells with artificial antigen presenting cells (aAPCs) loaded with peptide/MHC complexes and anti-CD28 antibody.
In order to perform in vitro stimulations by artificial antigen presenting cells loaded with peptide-MHC complex (pMHC) and anti-CD28 antibody, the inventors first isolated CD8+ T cells from fresh HLA-A*02 leukapheresis products via positive selection using CD8 microbeads (Miltenyi Biotec, Bergisch-Gladbach, Germany) of healthy donors obtained from the University clinics Mannheim, Germany, after informed consent. PBMCs and isolated CD8+ lymphocytes were incubated in T-cell medium (TCM) until use consisting of RPMI-Glutamax (Invitrogen, Karlsruhe, Germany) supplemented with 10% heat inactivated human AB serum (PAN-Biotech, Aidenbach, Germany), 100 U/ml Penicillin/100 μg/ml Streptomycin (Cambrex, Cologne, Germany), 1 mM sodium pyruvate (CC Pro, Oberdorla, Germany), 20 μg/ml Gentamycin (Cambrex). 2.5 ng/ml IL-7 (PromoCell, Heidelberg, Germany) and 10 U/ml IL-2 (Novartis Pharma, Nürnberg, Germany) were also added to the TCM at this step. Generation of pMHC/anti-CD28 coated beads, T-cell stimulations and readout was performed in a highly defined in vitro system using four different pMHC molecules per stimulation condition and 8 different pMHC molecules per readout condition.
The purified co-stimulatory mouse IgG2a anti human CD28 Ab 9.3 (Jung et al., 1987) was chemically biotinylated using Sulfo-N-hydroxysuccinimidobiotin as recommended by the manufacturer (Perbio, Bonn, Germany). Beads used were 5.6 μm diameter streptavidin coated polystyrene particles (Bangs Laboratories, Illinois, USA).
pMHC used for positive and negative control stimulations were A*0201/MLA-001 (peptide […] (SEQ ID NO. 289) from modified Melan-A/MART-1) and A*0201/DDX5-001 ([…] from DDX5, SEQ ID NO. 290), respectively.
800.000 beads/200 μl were coated in 96-well plates in the presence of 4×12.5 ng different biotin-pMHC, washed and 600 ng biotin anti-CD28 were added subsequently in a volume of 200 μl. Stimulations were initiated in 96-well plates by co-incubating 1×10^6 CD8+ T cells with 2×10^5 washed coated beads in 200 μl TCM supplemented with 5 ng/ml IL-12 (PromoCell) for 3 days at 37° C. Half of the medium was then exchanged by fresh TCM supplemented with 80 U/ml IL-2 and incubating was continued for 4 days at 37° C. This stimulation cycle was performed for a total of three times. For the pMHC multimer readout using 8 different pMHC molecules per condition, a two-dimensional combinatorial coding approach was used as previously described (Andersen et al., 2012) with minor modifications encompassing coupling to 5 different fluorochromes. Finally, multimeric analyses were performed by staining the cells with Live/dead near IR dye (Invitrogen, Karlsruhe, Germany), CD8-FITC antibody clone SK1 (BD, Heidelberg, Germany) and fluorescent pMHC multimers. For analysis, a BD LSRII SORP cytometer equipped with appropriate lasers and filters was used. Peptide specific cells were calculated as percentage of total CD8+ cells. Evaluation of multimeric analysis was done using the FlowJo software (Tree Star, Oregon, USA). In vitro priming of specific multimer+CD8+ lymphocytes was detected by comparing to negative control stimulations.

A further experiment deals with HLA-A*02:01 (Homo sapiens, UniProt P04439, D140Y/D185E/D98H/E176V/E277Q/G131W/G231S/I119V/I121R/I166T/I218V/L300P/L318F/N151K/N90K/P208A/P217A/Q86G/Q94H/R138H/R169H/T345S). Briefly: MHC binding assay (UV-ligand exchange, beta2m ELISA). Conditions: binding to HLA-A*02:01, β2m ELISA. The method, boiled down: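 UV-cleavable peptide in HLA monomers exchanged for test peptide by UV irradiation; exchange yield measured by streptavidin-capture ELISA with HRP anti-β2m (TMB, 450 nm) on 100-fold diluted complexes. Quantified against refolded HLA-A*02:01/MLA-001 standards (15-500 ng/ml).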

Regarding “102 (GLYPVTLVGV; listed as Homo sapiens) [compound 102]”, the “Wells positive [%]” value in experiment [1] is “+ (<20% = +)”. The “Peptide exchange (MHC class I binding score, peptide exchange yield)” value (from here on “Peptide exchange”) in the experiment with HLA-A*02:01 is “+++ (≧50 = +++)”.
The corresponding values for “233 (SLFESLEYL; listed as Homo sapiens) [compound 233]” are “+ (<20% = +)” and “+++ (≧50 = +++)”.
In the same order, the values of “157 (ILQDGQFLV; listed as Homo sapiens) [compound 157]” are “+ (<20% = +)” and “++ (≧20% = ++)”.
In the same order, the values of “264 (TLHDQVHLL; listed as Homo sapiens) [compound 264]” are “+ (<20% = +)” and “++ (≧20% = ++)”.
Take “255 (FLMKNSDLYGA; listed as Homo sapiens) [compound 255]”: the “Wells positive [%]” value in experiment [1] is “+ (<20% = +)”. In the experiment with HLA-A*02:01, the “Peptide exchange” value was “+++ (≧50 = +++)”.
In the same order, the values of “35 (VIIKGLEEI; listed as Homo sapiens) [compound 35]” are “+ (<20% = +)” and “++ (≧20% = ++)”.
The corresponding values for “34 (TLNTLDINL; listed as Homo sapiens) [compound 34]” are “++++ (>=70% = ++++)” and “+++ (≧50 = +++)”.
In the same order, the values of “4 (VLFGELPAL; listed as Homo sapiens) [compound 4]” are “+ (<20% = +)” and “+++ (≧50 = +++)”.
On to “254 (ALGDKFLLRV; listed as Homo sapiens) [compound 254]”, for which the “Wells positive [%]” value in experiment [1] is “+ (<20% = +)”. In addition, the “Peptide exchange” value in the experiment with HLA-A*02:01 was “++ (≧20% = ++)”.
In the same order, the values of “17 (GLLPSAESIKL; listed as Homo sapiens) [compound 17]” are “+ (<20% = +)” and “++++ (≧75% = ++++)”.
In the same order, the values of “246 (ALAGIVTNV; listed as Homo sapiens) [compound 246]” are “+ (<20% = +)” and “+++ (≧50 = +++)”.
In the same order, the values of “97 (KLFEKSTGL; listed as Homo sapiens) [compound 97]” are “+ (<20% = +)” and “+++ (≧50 = +++)”.
“77 (ALYGNVQQV; listed as Homo sapiens) [compound 77]”: the “Wells positive [%]” value in experiment [1] was “+ (<20% = +)”. Moreover, the “Peptide exchange” value in the experiment with HLA-A*02:01 is reported as “+++ (≧50 = +++)”.
The corresponding values for “263 (SIIEYLPTL; listed as Homo sapiens) [compound 263]” are “+ (<20% = +)” and “+++ (≧50 = +++)”.
Consider “66 (AMFPDTIPRV; listed as Homo sapiens) [compound 66]”, for which the “Wells positive [%]” value in experiment [1] is “+ (<20% = +)”. In addition, the “Peptide exchange” value with HLA-A*02:01 is reported as “++ (≧20% = ++)”.
Take “121 (ALYVQAPTV; listed as Homo sapiens) [compound 121]”: in experiment [1], the “Wells positive [%]” value is given as “+ (<20% = +)”. Besides, the “Peptide exchange” value with HLA-A*02:01 is listed as “++ (≧20% = ++)”.
In the same order, the values of “50 (ILLSVLHQL; listed as Homo sapiens) [compound 50]” are “+ (<20% = +)” and “+++ (≧50 = +++)”.
